Data published in US8232253B2, “Treatment of lung cancer” (Ramot at Tel-Aviv University Ltd., priority 2006, dated 2012).

What was measured:
A549 cells [1] = experiment: FACS analysis of cell cycle (propidium iodide); assay type: cell-based, human; conditions: for apoptotic population of cells (sub-G1): 75 μM FTS; for reduction in G1 population: FTS
Protocol: A549 cells were plated (9×10^5 cells) in 10-cm plates, incubated for 24 h in medium containing 5% FCS, and then incubated for 24 or 48 h with or without 75 μM FTS. The cells were collected, resuspended in PBS containing propidium iodide (50 μg/ml; Sigma) and 0.05% Triton X-100, and subjected to analysis by a fluorescence-activated cell sorter (FACSCalibur; Becton Dickinson, Los Angeles, Calif.).
To investigate the effect of FTS on lung cancer cell proliferation, we first incubated A549 cells that harbor the activated K-ras gene mutated at codon 12. A549 cells are commonly used as a model for drug screening. […] Increasing concentration of FTS inhibited A549 cell growth at a dose dependent rate, with a decrease of 50% at 40 μM FTS. The number of cells in the FTS-treated cultures was determined by direct counting of A549 cells grown for 6 days in the presence of FTS and was expressed as a percentage of the number recorded in the controls. Data were means of 12 counts ±SD. *P<0.01, **P<0.0005, compared to control (FIG. 3). In another set of experiments, cells were also treated for 24 and 48 h with FTS and collected for FACS analysis (FIG. 4). The apoptotic population of cells (indicated in the FACS analysis as sub-G1) was 3.8% at 24 h and 8.4% at 48 h in cells treated with 75 μM FTS, compared to 1.0% and 2.8%, respectively, in control cells (FIG. 4). […] Thus, FTS induced cell-cycle arrest in A549 cells, resulting in inhibition of cell growth.

phospho-ERK = experiment: Phospho-ERK immunoblotting in A549 cells; assay type: cell-based, human
Protocol: A549 cells were incubated for 24 or 48 h with or without FTS, as described above, and then lysed with lysis buffer as described in Haklai, R., Gana-Weisz, M., Elad, G., et al., Biochemistry 37:1306-14 (1998). The apparent amounts of K-Ras-GTP in 0.5 mg protein of total cell lysates were determined by the glutathione-S-transferase (GST)-RBD (Ras-binding domain of Raf) pull-down assay, as described in (Elad-Sfadia, G., Haklai, R., Ballan, E., Gabius, H. J., Kloog, Y., J Biol Chem 277:37169-75 (2002). The apparent amounts of Rac1-GTP and of RhoA-GTP, each in 2 mg protein of total cell lysates, were determined, respectively, by pull-down assays with GST-PBD (Rac1-binding domain of PAK1)-conjugated and GST-Rhotekin BD (Rho-binding domain of Rhotekin)-conjugated beads [Benard, V., Bohl, B. P., Bokoch, G. M, J Biol Chem 274:13198-204 (1999); Fiordalisi, J. J., Keller, P. J., Cox, A. D., Cancer Res 66:3153-61 (2006). […] Levels of phospho-ERK and phospho-Akt were determined by immunoblotting [Haklai, R., Gana-Weisz, M., Elad, G., et al., supra.] using rabbit anti phospho-ERK1/2 Ab (Santa Cruz Biotechnology, Santa Cruz, Calif.) and rabbit anti phospho-Akt Ab (Cell Signaling, Beverly, Mass.). Protein bands were visualized by enhanced chemiluminescence and quantified by densitometry using ImageJ computer software (National institutes of Health, Bethesda, Md.). […]

A549 cells [2] = experiment: A549-cell-implanted nude mouse model, tumor growth; assay type: in vivo, nude mice
Protocol: (§1) Nude mice (6 weeks old) were housed in barrier facilities on a 12-h light/dark cycle. Food and water were supplied ad libitum. On day zero, A549 or HTB-58 cells (5×10^6 cells in 0.1 ml PBS) were implanted subcutaneously (s.c.) just above the right femoral joint. After 5 or 11 days the mice were separated randomly into control groups that had received only the vehicle and FTS-treated groups. Daily FTS treatments were administered either intraperitoneally (i.p.) or orally. Tumor volumes or weights were determined as described in Barkan, B., Starinsky, S., Friedman, E., Stein, R., Kloog, Y., Clin Cancer Res 12:5533-42 (2006). Gemcitabine treatment (36 mg/kg, i.p.) was administered every 4 days.
To determine whether FTS inhibited tumor growth in vivo, experiments were conducted using a nude mouse model. The lung cancer cells were implanted s.c. above the right femoral joint and the mice were then treated with FTS. In a first experiment, the effect of i.p. administration of FTS on tumor growth in A549 cells was assessed. Treatment was started 5 days after cell implantation, by which time the tumors were palpable. Tumor volumes were determined 24 days after implantation in two groups of mice (n=8) that had received daily i.p. administration of either the vehicle (control) or 10 mg/kg FTS.
In an additional set of experiments, the A549-cell-implanted nude mouse model was used to examine the effect of orally administered FTS on tumor growth. First, cells were implanted as described above and daily oral treatment with FTS (50 mg/kg; n=6) or vehicle (n=5) was started either 11 days (FIG. 14C) or 6 days (FIG. 14D) after implantation. […] Next, the effects of orally administered FTS, alone or in combination with gemcitabine, on A549-cell tumor growth was examined (FIG. 14D). Six days after cell implantation, mice were divided into four groups (n=8 per group) and treated orally with vehicle alone (control), FTS alone (60 mg/kg), vehicle and gemcitabine (36 mg/kg, i.p. every 4 days), or FTS and gemcitabine. Treatments with gemcitabine began 1 week after FTS treatment was started.

HTB-58 cells = experiment: HTB-58-cell-implanted nude mouse model, tumor growth; assay type: in vivo, nude mice; conditions: 10 mg/kg FTS i.p. daily
Protocol: as §1
Tumor volume measured 14 days after cell implantation in that group was 0.02±0.045 cm^3 compared to 0.09±0.08 cm^3 in the vehicle-treated controls (P<0.05).

[3] = 50 mg/kg FTS oral daily from day 11, after 16 days of treatment (FIG. 14C)
[4] = 60 mg/kg FTS oral alone, from day 6 (FIG. 14D)

Q: Which results are given for `CC(C)=CCC/C(C)=C/CC/C(C)=C/CSc1ccccc1C(=O)O` [FTS, S-farnesylthiosalicylic acid]?
A: apoptotic population of cells (sub-G1) (A549 cells [1]; 24 h): 3.8%; apoptotic population of cells (sub-G1) (A549 cells [1]; 48 h): 8.4%; reduction in G1 population (A549 cells [1]; 24 h): 5.6%; reduction in G1 population (A549 cells [1]; 48 h): 19%; inhibition of phospho-ERK level (phospho-ERK): 33±2%; inhibition of tumor growth relative to control (tumor volume) (A549 cells [2]; 10 mg/kg FTS i.p. daily from day 5, 24 days after implantation): 53.8%; inhibition in tumor growth (A549 cells [2]; [3]): 53.7±19.1%; tumor weight (mean±SD) (A549 cells [2]; [3]): 0.4 ± 0.19 g; inhibition in tumor growth (A549 cells [2]; [4]): 46.2±16.3%; tumor weight (mean±SD) (A549 cells [2]; [4]): 0.49 ± 0.15 g; inhibition of tumor growth (HTB-58 cells): 76.4±48.8%; tumor volume (HTB-58 cells; 14 days after cell implantation): 0.02±0.045 cm^3
